Reference: PubChem BioAssay (NCI)
Several values for one entry are separate records, joined by “and”; a condition that tells them apart may be missing. Equal entries are not always repeated.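 1) Cells in 96-well plates. 2) Compound, 48 h, 5 concentrations. 3) Linear interpolation between surrounding doses. 4) Unreached endpoint = highest concentration. GI50 is the concentration that inhibits growth by half. The concentration for full growth arrest is given as TGI.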

Assays:
Assay in all cases: NCI anticancer screen, dose series, 48 h
ACHN renal = test system: ACHN renal
HS 578T breast = test system: HS 578T breast
786-0 renal = test system: 786-0 renal
NCI-H460 lung = test system: NCI-H460 lung
MDA-MB-231 breast = test system: MDA-MB-231 breast
SW-620 colon = test system: SW-620 colon
NCI/ADR-RES ovarian = test system: NCI/ADR-RES ovarian
UACC-62 melanoma = test system: UACC-62 melanoma
SK-MEL-5 melanoma = test system: SK-MEL-5 melanoma
PC-3 prostate = test system: PC-3 prostate

CC1(C)CC(O)CC(C)(C)N1O
TGI (ACHN renal): > 100 µM | GI50 (HS 578T breast): > 100 µM | TGI (HS 578T breast): > 100 µM | TGI (786-0 renal): > 100 µM | TGI (NCI-H460 lung): > 100 µM | TGI (MDA-MB-231 breast): > 100 µM | TGI (SW-620 colon): > 100 µM | TGI (NCI/ADR-RES ovarian): > 100 µM | TGI (UACC-62 melanoma): > 100 µM | TGI (SK-MEL-5 melanoma): > 100 µM | TGI (PC-3 prostate): > 100 µM

Cc1ccc(-c2nc(NCCOCCOCCN)nc(N3CCN(c4ccccn4)CC3)n2)cc1
GI50 (ACHN renal): 14.7 µM | TGI (ACHN renal): 32.4 µM | GI50 (HS 578T breast): 15.9 µM | TGI (HS 578T breast): 42.3 µM | GI50 (786-0 renal): 12.4 µM | TGI (786-0 renal): 26.8 µM | GI50 (NCI-H460 lung): 13.9 µM | TGI (NCI-H460 lung): 29.9 µM | GI50 (MDA-MB-231 breast): 14.1 µM | TGI (MDA-MB-231 breast): 29.8 µM | GI50 (SW-620 colon): 11 µM | TGI (SW-620 colon): 29.2 µM | GI50 (NCI/ADR-RES ovarian): 15.3 µM | TGI (NCI/ADR-RES ovarian): 31.1 µM | GI50 (UACC-62 melanoma): 5.99 µM | TGI (UACC-62 melanoma): 13.7 µM | GI50 (SK-MEL-5 melanoma): 11.8 µM | TGI (SK-MEL-5 melanoma): 25.1 µM | GI50 (PC-3 prostate): 15.5 µM | TGI (PC-3 prostate): 31 µM

NNc1c(C(N)=O)c2c(N)ncnc2n1C1OC(CO)C(O)C1O (stereo unspecified)
GI50 (ACHN renal): 0.0167 µM | TGI (ACHN renal): 0.101 µM and 0.499 µM | GI50 (HS 578T breast): 0.056 µM and 0.107 µM | TGI (HS 578T breast): 0.826 µM and 2.38 µM | GI50 (786-0 renal): 0.0354 µM and 0.107 µM | TGI (786-0 renal): 0.405 µM and 1.87 µM | GI50 (NCI-H460 lung): 0.0197 µM and 0.14 µM | TGI (NCI-H460 lung): 0.673 µM and 4.45 µM | GI50 (MDA-MB-231 breast): 0.086 µM | TGI (MDA-MB-231 breast): 0.491 µM and 2.23 µM | GI50 (SW-620 colon): < 0.0124 µM | TGI (SW-620 colon): 0.992 µM and 0.241 µM | GI50 (NCI/ADR-RES ovarian): 0.0179 µM and 0.0374 µM | TGI (NCI/ADR-RES ovarian): 0.289 µM and 0.754 µM | GI50 (UACC-62 melanoma): 0.0269 µM and 0.0409 µM | TGI (UACC-62 melanoma): 0.124 µM and 0.168 µM | GI50 (SK-MEL-5 melanoma): 0.0601 µM and 0.0828 µM | TGI (SK-MEL-5 melanoma): 0.194 µM and 0.275 µM | GI50 (PC-3 prostate): 0.0224 µM and 0.0464 µM | TGI (PC-3 prostate): 0.22 µM and 0.304 µM

Cc1cc(N2CCC(N3CCCC3)CC2)nc(/N=C(\N)Nc2ccc(Cl)c(Cl)c2)n1
GI50 (ACHN renal): 1.71 µM | TGI (ACHN renal): 3.22 µM | GI50 (HS 578T breast): 1.91 µM | TGI (HS 578T breast): 5.06 µM | GI50 (786-0 renal): 1.82 µM | TGI (786-0 renal): 3.41 µM | GI50 (NCI-H460 lung): 1.89 µM | TGI (NCI-H460 lung): 3.67 µM | GI50 (MDA-MB-231 breast): 1.67 µM | TGI (MDA-MB-231 breast): 3.64 µM | GI50 (SW-620 colon): 1.57 µM | TGI (SW-620 colon): 3.24 µM | GI50 (NCI/ADR-RES ovarian): 2.58 µM | TGI (NCI/ADR-RES ovarian): 7.66 µM | GI50 (UACC-62 melanoma): 1.9 µM | TGI (UACC-62 melanoma): 3.6 µM | GI50 (SK-MEL-5 melanoma): 1.65 µM | TGI (SK-MEL-5 melanoma): 3.02 µM | GI50 (PC-3 prostate): 2.65 µM | TGI (PC-3 prostate): 8.26 µM

O=C(Nc1ccn(C2CC(O)C(COC(c3ccccc3)(c3ccccc3)c3ccccc3)O2)c(=O)n1)c1ccccc1 (stereo unspecified)
TGI (ACHN renal): 9.31 µM | TGI (HS 578T breast): 5.91 µM | TGI (786-0 renal): 3.51 µM | TGI (NCI-H460 lung): 4.31 µM | TGI (MDA-MB-231 breast): 7.5 µM | TGI (SW-620 colon): 5.46 µM | TGI (NCI/ADR-RES ovarian): 5.25 µM | TGI (UACC-62 melanoma): 20 µM | TGI (SK-MEL-5 melanoma): 4.67 µM | TGI (PC-3 prostate): 5.35 µM

CC[C@H](C)[C@H](NC(=O)C12C3C4C1C1C2C3C41NC)C(=O)N(C)[C@H](C[C@@H](OC(C)=O)c1nc(C(=O)N[C@@H](Cc2ccccc2)C[C@H](C)C(=O)OC)cs1)C(C)C (stereo partly specified)
GI50 (ACHN renal): 1.21 µM | TGI (ACHN renal): > 14.3 µM | GI50 (HS 578T breast): 0.693 µM | TGI (HS 578T breast): > 11.9 µM | GI50 (786-0 renal): 0.76 µM | TGI (786-0 renal): > 14.3 µM | GI50 (NCI-H460 lung): 0.617 µM | TGI (NCI-H460 lung): > 14.3 µM | GI50 (MDA-MB-231 breast): 0.798 µM | TGI (MDA-MB-231 breast): > 13 µM | GI50 (SW-620 colon): 0.459 µM | TGI (SW-620 colon): > 14.3 µM | GI50 (NCI/ADR-RES ovarian): 8.15 µM | TGI (NCI/ADR-RES ovarian): > 14.3 µM | GI50 (UACC-62 melanoma): 0.118 µM | TGI (UACC-62 melanoma): > 14.3 µM | GI50 (SK-MEL-5 melanoma): 0.159 µM | TGI (SK-MEL-5 melanoma): 2.85 µM | GI50 (PC-3 prostate): 0.645 µM | TGI (PC-3 prostate): > 14.3 µM

Nc1nc(SCc2ccccc2CCl)c2[nH]cnc2n1
GI50 (ACHN renal): 18.6 µM | TGI (ACHN renal): 74.6 µM | GI50 (HS 578T breast): 18.3 µM | TGI (HS 578T breast): 97.2 µM | GI50 (786-0 renal): 17.6 µM | TGI (786-0 renal): 40.3 µM | GI50 (NCI-H460 lung): 15.2 µM | TGI (NCI-H460 lung): 30.9 µM | GI50 (MDA-MB-231 breast): 14.2 µM | TGI (MDA-MB-231 breast): 38 µM | GI50 (SW-620 colon): 14.8 µM | TGI (SW-620 colon): 29.2 µM | GI50 (NCI/ADR-RES ovarian): 20.9 µM | TGI (NCI/ADR-RES ovarian): 67.7 µM | GI50 (UACC-62 melanoma): 14.3 µM | TGI (UACC-62 melanoma): 30.1 µM | GI50 (SK-MEL-5 melanoma): 10.8 µM | TGI (SK-MEL-5 melanoma): 23.7 µM | GI50 (PC-3 prostate): 25.1 µM | TGI (PC-3 prostate): > 100 µM
